In patent US20170190671A1, “BIS(ARYL)CATECHOL DERIVATIVES AS HERBICIDES” (E I DU PONT DE NEMOURS AND COMPANY, priority 2014, published 2017):

Columns and labels:
Type in all cases: in vivo
Settings in all cases: scale 0 to 100
[1] = test system: pigweed (Amaranthus retroflexus); experiment: Test D preemergence
From the text: (§1) Seeds of plant species selected from bluegrass (annual bluegrass, Poa annua), blackgrass (Alopecurus myosuroides), canarygrass (Phalaris minor), chickweed (common chickweed, Stellaria media), cutleaf geranium (Geranium dissectum), galium (catchweed bedstraw, Galium aparine), downy bromegrass (Bromus tectorum), field poppy (Papaver rhoeas), field violet (Viola arvensis), green foxtail (Setaria viridis), deadnettle (henbit deadnettle, Lamium amplexicaule), Italian ryegrass (Lolium multiflorum), kochia (Kochia scoparia), lambsquarters (Chenopodium album), oilseed rape (Brassica napus), pigweed (Amaranthus retroflexus), chamomile (scentless chamomile, Matricaria inodora), Russian thistle (Salsola kali), speedwell (bird's-eye speedwell, Veronica persica), spring barley (Hordeum vulgare), spring wheat (Triticum aestivum), wild buckwheat (Polygonum convolvulus), wild mustard (Sinapis arvensis), wild oat (Avenafatua), wild radish (Raphanus raphanistrum), windgrass (Apera spica-venti), winter barley (Hordeum vulgare), and winter wheat (Triticum aestivum) were planted into a silt loam soil and treated preemergence with test chemicals formulated in a non-phytotoxic solvent mixture which included a surfactant.
(§2) At the same time, these species were planted in pots containing Redi-Earth® planting medium (Scotts Company, 14111 Scottslawn Road, Marysville, Ohio 43041) comprising spaghnum peat moss, vermiculite, wetting agent and starter nutrients and treated with postemergence applications of the test chemicals formulated in the same manner. Plants ranged in height from 2 to 18 cm (1- to 4-leaf stage). Treated plants and controls were maintained in a controlled growth environment for 14 to 21 days after which time all species were compared to controls and visually evaluated. Plant response ratings, summarized in Table D, are based on a scale of 0 to 100 where 0 is no effect and 100 is complete control. A dash (-) response means no test result.

[2] = test system: oilseed rape (Brassica napus); experiment: Test D preemergence
From the text: as §1, §2

[3] = test system: spring barley (Hordeum vulgare); experiment: Test D preemergence
From the text: as §1, §2

[4] = test system: chickweed (common chickweed, Stellaria media); experiment: Test D preemergence
From the text: as §1, §2

[5] = test system: wild buckwheat (Polygonum convolvulus); experiment: Test D preemergence
From the text: as §1, §2

[6] = test system: deadnettle (henbit deadnettle, Lamium amplexicaule); experiment: Test D preemergence
From the text: as §1, §2

[7] = test system: winter wheat (Triticum aestivum); experiment: Test D preemergence
From the text: as §1, §2

[8] = test system: windgrass (Apera spica-venti); experiment: Test D preemergence
From the text: as §1, §2

[9] = test system: green foxtail (Setaria viridis); experiment: Test D preemergence
From the text: as §1, §2

[10] = test system: bluegrass (annual bluegrass, Poa annua); experiment: Test D preemergence
From the text: as §1, §2

[11] = test system: field poppy (Papaver rhoeas); experiment: Test D preemergence
From the text: as §1, §2

[12] = test system: chamomile (scentless chamomile, Matricaria inodora); experiment: Test D preemergence
From the text: as §1, §2

[13] = test system: spring wheat (Triticum aestivum); experiment: Test D preemergence
From the text: as §1, §2

[14] = test system: field violet (Viola arvensis); experiment: Test D preemergence
From the text: as §1, §2

kochia (Kochia scoparia) = experiment: Test D preemergence
From the text: as §1, §2

[15] = test system: galium (catchweed bedstraw, Galium aparine); experiment: Test D preemergence
From the text: as §1, §2

[16] = test system: speedwell (bird's-eye speedwell, Veronica persica); experiment: Test D postemergence
In short: (§3)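 Visual injury scored 0–100 (0 = no effect, 100 = complete control) against controls 14 to 21 days after treatment in a controlled growth environment. Compounds were applied in surfactant-containing non-phytotoxic solvent, preemergence onto silt loam-sown seeds or postemergence onto 1- to 4-leaf plants.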

[17] = test system: chickweed (common chickweed, Stellaria media); experiment: Test D postemergence
In short: as §3

[18] = test system: downy bromegrass (Bromus tectorum); experiment: Test D postemergence
In short: as §3

N#Cc1cccc(Oc2ncc(Cl)cn2)c1Oc1ncc(Cl)cn1 [Compound 3, 2,3-bis[(5-chloro-2-pyrimidinyl)oxy]benzonitrile]
85: Plant response rating, Bluegrass ([10]; 125 g ai/ha) | Plant response rating, Chamomile ([12]; 125 g ai/ha) | Plant response rating, Speedwell ([16]; 16 g ai/ha) | Plant response rating, Speedwell ([16]; 31 g ai/ha)
10: Plant response rating, Oilseed Rape ([2]; 16 g ai/ha) | Plant response rating, Wheat, Winter ([7]; 125 g ai/ha) | Plant response rating, Windgrass ([8]; 16 g ai/ha) | Plant response rating, Foxtail, Green ([9]; 16 g ai/ha) | Plant response rating, Chamomile ([12]; 16 g ai/ha) | Plant response rating, Wheat, Spring ([13]; 62 g ai/ha) | Plant response rating, Bromegrass, Downy ([18]; 16 g ai/ha)
15: Plant response rating, Windgrass ([8]; 31 g ai/ha)
30: Plant response rating, Buckwheat, Wild ([5]; 31 g ai/ha)
50: Plant response rating, Windgrass ([8]; 62 g ai/ha) | Plant response rating, Chickweed ([17]; 16 g ai/ha)
80: Plant response rating, Windgrass ([8]; 125 g ai/ha) | Plant response rating, Chickweed ([17]; 62 g ai/ha)
40: Plant response rating, Barley, Spring ([3]; 125 g ai/ha)
70: Plant response rating, Deadnettle ([6]; 16 g ai/ha) | Plant response rating, Chickweed ([17]; 31 g ai/ha)
25: Plant response rating, Oilseed Rape ([2]; 31 g ai/ha) | Plant response rating, Bluegrass ([10]; 62 g ai/ha) | Plant response rating, Bromegrass, Downy ([18]; 62 g ai/ha) | Plant response rating, Bromegrass, Downy ([18]; 125 g ai/ha)
90: Plant response rating, Field Poppy ([11]; 16 g ai/ha)
35: Plant response rating, Oilseed Rape ([2]; 62 g ai/ha) | Plant response rating, Chamomile ([12]; 62 g ai/ha)
95: Plant response rating, Deadnettle ([6]; 31 g ai/ha)
75: Plant response rating, Buckwheat, Wild ([5]; 62 g ai/ha)
60: Plant response rating, Foxtail, Green ([9]; 31 g ai/ha)
0: Plant response rating, Barley, Spring ([3]; 16 g ai/ha) | Plant response rating, Barley, Spring ([3]; 31 g ai/ha) | Plant response rating, Barley, Spring ([3]; 62 g ai/ha) | Plant response rating, Buckwheat, Wild ([5]; 16 g ai/ha) | Plant response rating, Wheat, Winter ([7]; 16 g ai/ha) | Plant response rating, Wheat, Winter ([7]; 31 g ai/ha) | Plant response rating, Bluegrass ([10]; 16 g ai/ha) | Plant response rating, Bluegrass ([10]; 31 g ai/ha) | Plant response rating, Wheat, Spring ([13]; 16 g ai/ha) | Plant response rating, Wheat, Spring ([13]; 31 g ai/ha)
20: Plant response rating, Chamomile ([12]; 31 g ai/ha) | Plant response rating, Wheat, Spring ([13]; 125 g ai/ha) | Plant response rating, Galium ([15]; 16 g ai/ha) | Plant response rating, Bromegrass, Downy ([18]; 31 g ai/ha)
100: Plant response rating, Pigweed ([1]; 16 g ai/ha) | Plant response rating, Pigweed ([1]; 31 g ai/ha) | Plant response rating, Pigweed ([1]; 62 g ai/ha) | Plant response rating, Pigweed ([1]; 125 g ai/ha) | Plant response rating, Oilseed Rape ([2]; 125 g ai/ha) | Plant response rating, Chickweed ([4]; 16 g ai/ha) | Plant response rating, Chickweed ([4]; 31 g ai/ha) | Plant response rating, Chickweed ([4]; 62 g ai/ha) | Plant response rating, Chickweed ([4]; 125 g ai/ha) | Plant response rating, Buckwheat, Wild ([5]; 125 g ai/ha) | Plant response rating, Deadnettle ([6]; 62 g ai/ha) | Plant response rating, Deadnettle ([6]; 125 g ai/ha) | Plant response rating, Foxtail, Green ([9]; 62 g ai/ha) | Plant response rating, Foxtail, Green ([9]; 125 g ai/ha) | Plant response rating, Field Poppy ([11]; 31 g ai/ha) | Plant response rating, Field Poppy ([11]; 62 g ai/ha) | Plant response rating, Field Poppy ([11]; 125 g ai/ha) | Plant response rating, Field Violet ([14]; 16 g ai/ha) | Plant response rating, Field Violet ([14]; 31 g ai/ha) | Plant response rating, Field Violet ([14]; 62 g ai/ha) | Plant response rating, Field Violet ([14]; 125 g ai/ha) | Plant response rating, Kochia (kochia (Kochia scoparia); 16 g ai/ha) | Plant response rating, Kochia (kochia (Kochia scoparia); 31 g ai/ha) | Plant response rating, Kochia (kochia (Kochia scoparia); 62 g ai/ha) | Plant response rating, Kochia (kochia (Kochia scoparia); 125 g ai/ha) | Plant response rating, Galium ([15]; 31 g ai/ha) | Plant response rating, Galium ([15]; 62 g ai/ha) | Plant response rating, Galium ([15]; 125 g ai/ha) | Plant response rating, Speedwell ([16]; 62 g ai/ha) | Plant response rating, Speedwell ([16]; 125 g ai/ha) | Plant response rating, Chickweed ([17]; 125 g ai/ha)
5: Plant response rating, Wheat, Winter ([7]; 62 g ai/ha)
